Assay results published in ChEMBL document CHEMBL4419164, “Methods and compositions for inhibiting cnksr1” (2018).
Activity calls are given as the source filed them. The rule behind the calls is not given here.

Tests used:
[1] = Half life in 10% fetal bovine serum at 50 ug/ml at 37 degC at pH 7.4; format: ADME, cell-free, Bos taurus; settings: cattle
[2] = target: T1, Connector enhancer of kinase suppressor of ras 1 (Homo sapiens) (UniProt Q969H4); assay: Inhibition of CNKSR1 (unknown origin) assessed as reduction in inhibition of KRas signaling effectors by measuring p-MAPK levels at 20 uM by cell based assay
T1 sequence (whole entry): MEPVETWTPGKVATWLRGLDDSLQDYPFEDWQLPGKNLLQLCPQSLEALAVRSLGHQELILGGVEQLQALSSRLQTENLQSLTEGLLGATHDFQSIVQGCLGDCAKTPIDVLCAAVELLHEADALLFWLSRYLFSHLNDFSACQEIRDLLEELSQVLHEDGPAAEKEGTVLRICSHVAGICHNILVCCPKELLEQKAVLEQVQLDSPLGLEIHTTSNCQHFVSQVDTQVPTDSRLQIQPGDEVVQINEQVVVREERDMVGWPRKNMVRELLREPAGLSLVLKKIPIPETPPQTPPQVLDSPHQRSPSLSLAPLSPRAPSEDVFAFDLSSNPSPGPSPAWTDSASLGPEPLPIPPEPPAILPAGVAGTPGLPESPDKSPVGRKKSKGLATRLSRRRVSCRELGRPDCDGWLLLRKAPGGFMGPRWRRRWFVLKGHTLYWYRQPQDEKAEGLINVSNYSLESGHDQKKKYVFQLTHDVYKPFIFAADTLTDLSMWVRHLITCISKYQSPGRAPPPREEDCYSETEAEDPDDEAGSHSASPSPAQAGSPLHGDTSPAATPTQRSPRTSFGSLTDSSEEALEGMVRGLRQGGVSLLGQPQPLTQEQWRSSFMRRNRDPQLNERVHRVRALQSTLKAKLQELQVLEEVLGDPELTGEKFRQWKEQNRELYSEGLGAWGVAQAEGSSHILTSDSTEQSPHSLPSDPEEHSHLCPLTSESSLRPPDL

[3] = Drug metabolism in C57BL6 mouse plasma assessed as Cmax for 2-(4-oxo-3-((4-p-tolylthiazol-2-yl)methyl)-3,4-dihydrophthalazin-1-yl)acetic acid at 250 mg/kg, po dosed via gavage as single administration; format: ADME, organism-based; parameters: dose 250 mg/kg, route oral; settings: in vivo
[4] = target: T2, carboxylesterase 1 (liver carboxylesterase 1) (Homo sapiens, UniProt P23141); assay: Stability assessed as recombinant human carboxyesterase-1 mediated compound hydrolysis by measuring half life at 50 ug/ml at 37 degC at pH 7.4; format: ADME; settings: recombinant human carboxylesterase-1, pH 7.4
T2 sequence (P23141 whole entry): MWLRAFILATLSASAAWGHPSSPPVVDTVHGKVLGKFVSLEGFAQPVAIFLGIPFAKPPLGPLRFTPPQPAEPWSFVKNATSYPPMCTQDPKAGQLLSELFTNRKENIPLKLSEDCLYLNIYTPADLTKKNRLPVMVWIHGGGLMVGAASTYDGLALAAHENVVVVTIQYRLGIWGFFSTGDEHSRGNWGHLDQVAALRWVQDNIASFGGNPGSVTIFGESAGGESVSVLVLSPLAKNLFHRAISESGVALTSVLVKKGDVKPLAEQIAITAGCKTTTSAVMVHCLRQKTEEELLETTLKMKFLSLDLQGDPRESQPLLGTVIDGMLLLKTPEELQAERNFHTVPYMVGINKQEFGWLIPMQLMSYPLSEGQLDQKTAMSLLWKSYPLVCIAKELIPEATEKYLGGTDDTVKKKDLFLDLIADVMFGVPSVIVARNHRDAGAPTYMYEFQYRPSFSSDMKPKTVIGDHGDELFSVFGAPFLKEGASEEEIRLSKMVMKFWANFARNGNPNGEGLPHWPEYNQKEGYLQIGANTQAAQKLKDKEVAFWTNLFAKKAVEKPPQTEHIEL

HCC515 = assay: Growth inhibition of human HCC515 cells incubated for 3 days; format: functional, cell-based; settings: HCC515, 72 h
[5] = target: T1, Connector enhancer of kinase suppressor of ras 1 (Homo sapiens); assay: Inhibition of CNKSR1 (unknown origin) assessed as reduction in inhibition of KRas signaling effectors by measuring p-AKT levels at 20 uM by cell based assay
[6] = target: T3, Connector enhancer of kinase suppressor of ras 1 (Homo sapiens, UniProt Q969H4); assay: Binding affinity to CNKSR1 PH-domain (unknown origin) by SPR spectroscopy; settings: read-out: Kd
T3 sequence (Q969H4 whole entry): T1 sequence (whole entry)

HCC95 = assay: Growth inhibition of human HCC95 cells incubated for 3 days; format: functional, cell-based; settings: HCC95, 72 h
[7] = Half life in human plasma at 50 ug/ml at 37 degC at pH 7.4; format: ADME, cell-free
NCI-H2122 [8] = assay: Antitumor activity against human NCI-H2122 cells xenografted in SCID mouse assessed as inhibition of tumor growth at 200 mg/kg/day dosed via gavage daily for 20 days relative to control; format: functional; settings: NCI-H2122, po, 480 h, read-out: TGI
NCI-H1373 = assay: Growth inhibition of human NCI-H1373 cells relative to control; format: functional, cell-based
[9] = target: T1, Connector enhancer of kinase suppressor of ras 1 (Homo sapiens); assay: Inhibition of CNKSR1 (unknown origin) assessed as reduction in inhibition of KRas signaling effectors by measuring GTP-RalA levels at 20 uM by cell based assay
[10] = target: T1, Connector enhancer of kinase suppressor of ras 1 (Homo sapiens); assay: Inhibition of GFP-tagged CNKSR1 (unknown origin) expressed in HEK293T cells assessed as blocking of membrane colocalization of CNKSR1 and mutant-KRas at plasma membrane at 50 uM incubated for 4 hrs by confocal imaging assay; format: cell-based
A549 = assay: Growth inhibition of human A549 cells relative to control; format: functional, cell-based
[11] = Growth inhibition of human […] cells incubated for 3 days; format: functional; settings: 72 h
[12] = Plasma concentration in C57BL6 mouse at 250 mg/kg, po dosed via gavage as single administration; format: ADME, organism-based; settings: in vivo
NCI-H2122 [13] = assay: Growth inhibition of human NCI-H2122 cells incubated for 3 days; format: functional, cell-based; settings: NCI-H2122, 72 h
[14] = target: T1, Connector enhancer of kinase suppressor of ras 1 (Homo sapiens); assay: Inhibition of CNKSR1 PH-domain (unknown origin) assessed as reduction in c-RAF Ser338 phosphorylation at 25 to 50 uM by cell based Western blot analysis
[15] = Toxicity in SCID mouse xenografted with human NCI-H2122 cells assessed as induction of weight loss at 200 mg/kg/day dosed via gavage daily for 20 days; format: organism-based; settings: in vivo, po, 480 h

half-life at 50 ug/ml [1]: 13.2 h | inhibition [2]: Active | Cmax [3]: 128 µM | half-life at 50 ug/ml [4]: 0.317 h | IC50 (HCC515): 70 µM | inhibition [5]: Active | Kd [6]: 1.8 to 3.2 µM | IC50 (HCC95): > 100 µM | t1/2 [7]: Stable | inhibition [9]: Active | inhibition [10]: Active | concentration [12]: 7 µM | IC50 (NCI-H2122 [13]): 27 µM | inhibition [14]: Active
Compound: CCOC(=O)Cc1nn(Cc2nc(-c3ccc(C)cc3)cs2)c(=O)c2ccccc12
inhibition in vivo at 200 mg/kg/day (NCI-H2122 [8]): 45% | growth inhibition (GI) (NCI-H1373): Active | growth inhibition (GI) (A549): Active | IC50 [11]: 51 µM | Activity [15]: Non-Toxic
